According to patent US6005099A, “Glucosamine disaccharides, method for their preparation, pharmaceutical composition comprising same, and their use” (priority 1993, dated 1999):
In brackets after ≈: the same amount, converted by molar mass. Entries after “also recorded” stand apart in the source; their conditions may differ.

Key:
[1] = tested on: macrophages of C57BL/6 mice; test: Production of interleukin-1α (IL-1α) in supernatants of macrophages, ELISA; format: cell-based
From the text: (§1) Bone marrow was collected from hip, femur and tibia of six week old male C57BL/6 mice. After homogenization of the marrow suspension in Dulbecco modified medium and centrifugation, the pellet was resuspended in Dulbecco modified medium and the cells were cultivated at a concentration of 4×10^5 cells per ml in the same medium supplemented with 30% supernatant of L-929 fibroblasts (a common source for colony stimulating factor 1 [CSF-1]) and 20% horse serum.
(§2) After 7 days the mature macrophages were collected and resuspended in Dulbecco modified medium comprising 5% foetal calf serum to a concentration of 7×10^6 cells per ml. This cell suspension was mixed 1:1, (v/v) with samples diluted in the same medium and used in the biological tests performed in microplates with 70,000 cells/well (incubation at 37° C. for 22 hours, 100% humidity and 8% CO2).
The concentration of IL-1α in the supernatants of macrophages was measured by an ELISA-test (Kit GENZYME, Intertest-1α).

[2] = tested on: Limulus amoebocyte lysate (LAL); test: Endotoxicity in the limulus amoebocyte lysate (LAL) test (gelification and chromogenic); format: biochemical, Limulus polyphemus
Protocol: (§3) The endotoxicity and the biological activity of disaccharide A (example 1) and of disaccharide B (example 2) were determined and compared to that of lipopolysaccharide originating from Escherichia coli O111:B4 (Sigma, Product No. L3024), lipid A (Sigma, Product No. L5399; used as a starting material in example 4), and 3-O-deacylated lipid A originating from lipid A of Escherichia coli F583 (prepared as in the comparative example), but without purification by HPLC.
(§4) The endotoxicity was determined in the Limulus amoebocyte lysate (LAL) test. This test is based on the observation that endotoxins induce coagulation of the hemolymph of Limulus polyphemus.
(§5) In the gelification test serial dilutions of the compound to be tested were mixed with LAL 1:1, (v/v) (Haemachem Inc., sensitivity LAL 0.06 endotoxin units/ml), and the mixture was incubated for one hour at 37° C. Then gel formation was monitored by measuring the optical density at 405 nm. The last dilution which formed a gel was determined by inverting the reaction microplate. The endotoxin activity in the samples was determined by comparison with dilutions of a lipopolysaccharide standard (1 endotoxin unit=0.1 ng LPS).
The endotoxicity was also measured in the chromogenic test, in which the activation of a protease in LAL by LPS was measured using a chromogen (Ac-Ile-Glu-Ala-Arg-pNA; Bio Whittaker Kit No. 50-650U). […]

protease in LAL = test: Endotoxicity, chromogenic LAL test with 0.1 mg/ml bovine serum albumin; format: biochemical, Limulus polyphemus; conditions: n=4 or 6
Protocol: The endotoxicity was also measured in the chromogenic test, in which the activation of a protease in LAL by LPS was measured using a chromogen (Ac-Ile-Glu-Ala-Arg-pNA; Bio Whittaker Kit No. 50-650U). The colour formation (liberation of pNA (p-nitroaniline)) was measured at 405 nm.
Samples were pre-incubated at 37° C. during 10 minutes and subsequently chromogen-comprising LAL was added. The time required for reaching an optical density of 0.2 at 405 nm was measured. The endotoxin activity was calculated in comparison to a reference curve obtained for LPS standards.
The endotoxicity of the disaccharides E, F and G was determined using the chromogenic LAL test (see infra). However, instead of using 1 mg/ml bovine serum albumin, 0.1 mg/ml has been used. The results (n=4 or 6) were obtained in two series of experiments and are shown hereafter.

[3] = tested on: macrophages of C57BL/6 mice; test: Production of TNF-α in supernatants of macrophages, ELISA; format: cell-based
From the text: as §1, §2
The concentration of TNF-α in supernatants of macrophages was determined by an ELISA test (Kit GENZYME, Factor-test mTNF-α).

[4] = tested on: Limulus amoebocyte lysate (LAL); test: Endotoxicity, LAL gelification test; format: biochemical, Limulus polyphemus; conditions: ng LPS per ng product, n = 2-12
Protocol: as §3, §4, §5
The results are expressed in table 3 as: ng LPS per ng product.

[5] = tested on: macrophages of C57BL/6 mice; test: Nitric oxide (NO) production in supernatants of macrophages; format: cell-based
Protocol: Bone marrow was collected from hip, femur and tibia of six week old male C57BL/6 mice.
as §2
Nitric oxide (NO) is produced by macrophages in response to bacterial infection and in particular LPS. NO seems to have cytostatic and cytotoxic properties. NO is extremely reactive and rapidly converted by oxidation into nitrite and nitrate.
The nitrite formation was determined using the Griess test (addition of 1:1, (v/v) N-(1-naphthyl)ethylene diamine hydrochloride [1 g/l in water] and p-aminobenzenesulphonamide [10 g/l in 5% H3 PO4 ]). The nitrite concentration in supernatants of activated macrophages was calculated in comparison to NaNO2 standards.

NMRI mice = test: Acute toxicity in NMRI mice; format: in vivo; conditions: caudal vein, up to 100 mg/kg
Protocol: Disaccharide A was injected into the caudal vein of male and female NMRI mice (age 6-7 weeks).

[6] = highest concentration tested 500 μg/ml

CCCCCCCCCCCC(=O)O[C@H](CCCCCCCCCCC)CC(=O)N[C@H]1[C@H](OC[C@H]2O[C@H](OP(=O)(O)O)[C@H](NC(=O)C[C@H](O)CCCCCCCCCCC)[C@@H](O)[C@@H]2O)O[C@H](CO)[C@@H](OP(=O)(O)O)[C@@H]1O [disaccharide A, 2-Deoxy-6-O-[2-deoxy-2-[(R)-3-dodecanoyloxytetradecanoylamino]-4-O-phosphono-β-D-glucopyranosyl]-2-[(R)-3-hydroxytetradecanoylamino]-α-D-glucopyranosyl dihydrogenphosphate]
IL-1α at concentration 500 μg/ml ([1]; 500 μg/ml): 75 ± 45 pg/mL | minimal effective concentration ([1]; Mus musculus, Macrophage, 22 h, detection limit in the order of 15 pg/ml, read-out: IL-1α: Minimum activity detected, concentration): 16 µg/mL | IL-1α at minimum activity detected ([1]; at the concentration of minimum activity, LPS 1.56, lipid A 50, 3-O-deacylated lipid A 160, disaccharide A 16 μg/ml): 19 ± 11 pg/mL | IL-1α at highest concentration tested [1, 6]: 75 ± 45 pg/mL | IL-1α production, in words ([1]; macrophages of C57BL/6 mice, comparison partly at 500 μg/ml): not significantly different; also recorded: at least as strong as by lipid A and 3-O-deacylated lipid A | Endotoxicity in LAL, in words [2]: lowest endotoxicity | Endotoxic activity in LAL (protease in LAL): 0.000003 ± 0.000002 mg/mg | TNF-α at concentration 500 μg/ml ([3]; 500 μg/ml): 530 ± 139 pg/mL | minimal effective concentration ([3]; Mus musculus, Macrophage, 22 h, detection limit in the order of 100 pg/ml, read-out: TNF-α: Minimum activity detected, concentration): 0.16 µg/mL | TNF α at minimum activity detected ([3]; at the concentration of minimum activity, LPS 0.006, lipid A 0.016, 3-O-deacylated lipid A 0.016, disaccharide A 0.16 μg/ml): 159 ± 43 pg/mL | TNF-α at highest concentration tested [3, 6]: 530 ± 139 pg/mL | TNF-α production, in words ([3]; macrophages of C57BL/6 mice): equally or more strongly than lipid A or 3-O-deacylated lipid A | Endotoxic activity in LAL, gelification [4]: 0.003 ± 0.002 ng/ng | EC50 ([5]; Mus musculus, Macrophage, product concentration corresponding to 50% activity, 22 hours, 37° C.): 0.16 µg/mL (≈ 0.141 µM) | minimal effective concentration ([5]; Mus musculus, Macrophage, product concentration corresponding to induced NO activity, 22 hours, 37° C., read-out: NO production: Minimum activity (product concentration)): 0.016 µg/mL | NO activity at 50% in nmol of NO2- /ml ([5]; extrapolated from the series dilution curve): 5 nmol of NO2- /ml | NO production, in words ([5]; macrophages of C57BL/6 mice): induce NO production of the same order; also recorded: as strongly as lipid A and 3-O-deacylated lipid A | NO production: Maximum activity (product concentration) ([5]; product concentration corresponding to induced NO activity, 22 hours, 37° C.): 50 µg/mL | Acute toxicity, deaths (NMRI mice): did not induce any death
